Legend:
Experiment in all cases: relative viability (nuclei count vs DMSO), 5 days (fraction); higher = more cells survive
Axitinib + Luminespib = compound: CNC(=O)c1ccccc1Sc1ccc2c(/C=C/c3ccccn3)n[nH]c2c1 [Axitinib] + CCNC(=O)c1noc(-c2cc(C(C)C)c(O)cc2O)c1-c1ccc(CN2CCOCC2)cc1 [Luminespib] (partner 0.01 µM)
In short: (§1)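 Lung cancer cell lines were pin-tool dosed in 1536-well plates on the day after seeding, with either a lone drug or a fixed anchor-drug dose plus five library-drug doses (not always all listed) in √10 steps. Nuclei were counted on 4× images after 5 days. Relative viability is the ratio of treated-well to vehicle-well nuclei counts, with each value a median of duplicate plates.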

Axitinib + Olaparib = compound: CNC(=O)c1ccccc1Sc1ccc2c(/C=C/c3ccccn3)n[nH]c2c1 [Axitinib] + O=C(c1cc(Cc2n[nH]c(=O)c3ccccc23)ccc1F)N1CCN(C(=O)C2CC2)CC1 [Olaparib] (partner 8 µM)
In short: as §1

Bemcentinib + Lapatinib = compound: Nc1nc(Nc2ccc3c(c2)CC[C@@H](N2CCCC2)CC3)nn1-c1cc2c(nn1)-c1ccccc1CCC2 [Bemcentinib] + CS(=O)(=O)CCNCc1ccc(-c2ccc3ncnc(Nc4ccc(OCc5cccc(F)c5)c(Cl)c4)c3c2)o1 [Lapatinib] (partner 2 µM)
In short: as §1

Bemcentinib + Decitabine = compound: Nc1nc(Nc2ccc3c(c2)CC[C@@H](N2CCCC2)CC3)nn1-c1cc2c(nn1)-c1ccccc1CCC2 [Bemcentinib] + Nc1ncn([C@H]2C[C@H](O)[C@@H](CO)O2)c(=O)n1 [Decitabine] (partner 2 µM)
In short: as §1

Cell Line | relative viability (Axitinib + Luminespib; first compound 0.005 µM) | relative viability (Axitinib + Luminespib; first compound 0.01581 µM) | relative viability (Axitinib + Luminespib; first compound 0.05 µM) | relative viability (Axitinib + Luminespib; first compound 0.1581 µM) | relative viability (Axitinib + Luminespib; first compound 0.5 µM) | relative viability (Axitinib + Olaparib; first compound 0.005 µM) | relative viability (Axitinib + Olaparib; first compound 0.01581 µM) | relative viability (Axitinib + Olaparib; first compound 0.05 µM) | relative viability (Axitinib + Olaparib; first compound 0.1581 µM) | relative viability (Axitinib + Olaparib; first compound 0.5 µM) | relative viability (Bemcentinib + Lapatinib; first compound 0.04 µM) | relative viability (Bemcentinib + Lapatinib; first compound 0.1265 µM) | relative viability (Bemcentinib + Lapatinib; first compound 0.4 µM) | relative viability (Bemcentinib + Lapatinib; first compound 1.265 µM) | relative viability (Bemcentinib + Lapatinib; first compound 4 µM) | relative viability (Bemcentinib + Decitabine; first compound 0.04 µM) | relative viability (Bemcentinib + Decitabine; first compound 0.1265 µM) | relative viability (Bemcentinib + Decitabine; first compound 0.4 µM) | relative viability (Bemcentinib + Decitabine; first compound 1.265 µM) | relative viability (Bemcentinib + Decitabine; first compound 4 µM)
NCI-H2405 | 0.863 | 0.809 | 0.839 | 0.779 | 0.866 | 0.892 | 0.919 | 0.94 | 0.827 | 0.949 | 0.86 | 1.16 | 1.05 | 1.1 | 1.03 | 0.74 | 0.717 | 0.799 | 0.821 | 0.761
NCI-H3122 | 0.0794 | 0.103 | 0.092 | 0.0739 | 0.0873 | 0.571 | 0.629 | 0.59 | 0.598 | 0.652 | 0.818 | 1.03 | 1.03 | 1.02 | 1.03 | 0.429 | 0.385 | 0.456 | 0.449 | 0.491
PC-3 [JPC-3] | 0.663 | 0.653 | 0.712 | 0.739 | 0.779 | 1.16 |  | 1.19 | 1.12 | 1.44 | 0.455 | 0.495 | 0.421 | 0.425 | 0.471 | 0.773 | 0.897 | 0.804 | 0.822 | 0.804
PC-14 | 0.295 |  | 0.171 | 0.141 | 0.164 | 0.326 | 0.368 | 0.275 | 0.4 | 0.24 | 0.336 | 0.372 | 0.339 | 0.3 | 0.284 | 0.209 | 0.213 | 0.204 | 0.176 | 0.197
RERF-LC-KJ | 1.23 | 1.2 | 1.17 | 1.21 | 1.42 | 1.1 | 0.853 | 0.964 | 0.81 | 0.951 | 0.848 | 1.02 | 1.15 | 0.919 | 0.885 | 0.676 | 0.729 | 0.784 | 0.855 | 0.752
SK-LU-1 | 0.224 | 0.21 | 0.188 | 0.201 | 0.238 | 0.454 | 0.476 | 0.525 | 0.448 | 0.477 | 0.806 | 0.888 | 0.865 | 0.964 | 0.904 | 0.533 | 0.764 | 0.74 | 0.615 | 0.623
SK-MES-1 | 0.774 | 0.781 | 0.746 | 0.766 | 0.825 | 0.775 | 0.829 | 0.711 | 0.833 | 1.02 | 0.437 | 0.447 | 0.431 | 0.482 | 0.511 | 0.363 | 0.361 | 0.451 | 0.315 | 0.379
SW 1573 | 0.325 | 0.253 | 0.424 | 0.586 | 0.13 | 0.502 | 0.595 | 0.55 | 0.417 | 0.507 | 0.976 | 1.03 | 1.18 | 0.961 | 1.09 | 0.427 | 0.55 | 0.595 | 0.544 | 0.468
UMC-11 | 1.01 | 1.03 | 1.07 | 1.04 | 1.14 | 0.353 | 0.4 | 0.737 | 0.376 | 0.335 | 0.88 | 1.16 | 1.06 | 0.868 | 0.975 | 0.576 | 0.565 | 0.521 | 0.628 | 0.58
